Measurements: patent US20140120190A1, “METHODS OF PREPARING PRICKLY-ASH PEEL EXTRACTS AND COSMETIC COMPOSITIONS INCORPORATING PRICKLY-ASH PEEL EXTRACTS” (priority 2012, published 2014)

Assays:
NF-κB gene = experiment: Blocking of NF-κB gene expression
Antioxidant effect = experiment: Antioxidant effect
From the text: At the same time, the molecular weight of gx-50 is so small that gx-50 is more easily absorbed via the skin.

skin = experiment: Effects on skin at the tissue level (collagen, elastin, hair follicles, senile plaques)

For COc1ccc(CCNC(=O)/C=C/c2ccccc2)cc1OC [gx-50], the “expression of the NF-κB gene” value (NF-κB gene) was “effectively blocks the expression of the NF-κB gene”, the antioxidant effect (Antioxidant effect) was “possessing an antioxidant effect” and the “loss of collagen and elastin in skin” value (skin) was “helps prevent the loss of collagen and elastin in skin”.
